Patent publication US20150259294A1, “METHOD OF PLANT GROWTH PROMOTION USING CARBOXAMIDE DERIVATIVES” (BAYER CROPSCIENCE AG, priority 2012, published 2015)

Experiments:
wheat leave discs = assay: Chlorophyll preservation bioassay in wheat leave discs; conditions: for Chlorophyll content (%): wheat leave discs at 4 dpt vs control at 0 dpt; for colour of leave discs at the end of the experiment: wheat and barley leave discs, 3 or 4 dpt in the dark
Method: (§1) To confirm the greening effect of compounds of formula (I) according to the invention observed in field trials, a simple bioassay was set up using wheat and barley. Discs of 1 cm of diameter were cut within leaves collected from 4 weeks old plants and deep at room temperature in water for 1 hour to allow ethylene produced after wound injury to dissipate. Control samples were produced dipping leave discs for 15 min in a solution of 5% DMSO-10% acetone-0.005% tween80 (bioassay formulation), immediately frozen (control 0 day post treatment-dpt) or deposited on Whatmann filter paper soaked by the bioassay formulation, in Petri dishes, […] Leaves discs treated with test compound were processed in the same way. In this case, leave discs were deep for 15 minutes in test compound solution and left to incubate on filter paper soaked with the corresponding test solution. Compounds of formula (I) according to the invention were tested in EC100 formulation unless otherwise specified; Other SDHI fungicides (Fluxapyroxad, Isopyrazam and Hambra) were tested in their respective field formulations.
(§2) Leave discs were frozen in liquid nitrogen and ground prior to chlorophyll extraction with 1 mL of an acetone-water (80-20 vol/vol) solution and chlorophyll concentration evaluation at 663 nm. Percentages of chlorophyll content in 3 or 4 dpt controls and corresponding treated samples were reported to the chlorophyll content measured in 0 dpt controls.

barley leave discs = assay: Chlorophyll preservation bioassay in barley leave discs; conditions: barley leaves at 3 dpt vs control at 0 dpt
Method: as §1, §2

soybean cultivar BRS 245 = assay: Soybean seed treatment field trial: development and yield; assay type: in vivo; conditions: for Plant Height (cm)/%: 050 SC, 42 days after planting, untreated control 33 cm = 100%; for Weight Root (g)/% / Weight Dry Plant (g)/%: 49 days after planting; for Weight Root (g)/%: untreated control 10 g = 100%; for Weight Dry Plant (g)/%: untreated control 46 g = 100%; for Grain Yield (dt)/%: untreated control 28 dt = 100%; for Weight of 1000 Grains (g)/%: untreated control 125 g = 100%
Method: Seeds of the Brazilian soybean cultivar BRS 245 were treated with compound A5: […] The product was applied as 050 SC with rates of 25 and 100 g a.i./dt. The field trial was set up in an experimental station close to Paulinia, S. P., in Brazil, in February 2012. […] Fertilization, herbicide- and insecticide applications were carried out according to the local agricultural practice. 42 days after planting plant height, 49 days after planting the dry weight of both entire green plants and the roots were measured. This trial was done under almost disease free conditions (“Asian Soybean Rust” Phakopsora pachyrhizi arrived about month after planting with a very low severity).

[1] = test system: winter wheat variety Dekan; assay: Foliar application field trial Laacherhof: yield of winter wheat; assay type: in vivo; conditions: 50 g a.i./ha, sprayed threefold at BBCH 31, 39 and 69, 100EC formulation with adjuvant; for Grain Yield (dt/ha): untreated control 86.25
Method: (§3) The field trial in winter wheat was conducted in the experimental station “Laacherhof” in Germany in spring/summer 2012.
(§4) Seeds of the winter wheat variety “Dekan” were planted on Oct. 17, 2011. Fertilization, herbicide- and plant growth regulator applications were carried out according to the local agricultural practice. Additionally, a cover spray with “Pronto Plus” was carried out at BBCH-growth stage 51 in order to keep brown rust (Puccinia triticina) out of the field trial (trial under pathogen-free conditions). The trial was conducted with 3 replicates and the replicates 2 and 3 were randomized. The plot size was 8.8 m^2.
(§5) Compounds A5 (N-(5-chloro-2-isopropylbenzyl)-N-cyclopropyl-3-(difluoromethyl)-5-fluoro-1-methyl-1H-pyrazole-4-carboxamide), A7 (N-cyclopropyl-3-(difluoromethyl)-5-fluoro-N-(5-fluoro-2-isopropylbenzyl)-1-methyl-1H-pyrazole-4-carboxamide), A12 (N-cyclopropyl-3-(difluoromethyl)-5-fluoro-N-(2-isopropyl-5-methylbenzyl)-1-methyl-1H-pyrazole-4-carboxamide) and A10 (N-cyclopropyl-3-(difluoromethyl)-5-fluoro-N-(2-fluoro-6-isopropylbenzyl)-1-methyl-1H-pyrazole-4-carboxamide) were sprayed threefold at BBCH-growth stages 31, 39 and 69 with an use rate of 50 g a.i./ha. All compounds were applied as 100EC formulation adding an adjuvant.
The winter wheat was harvested on Aug. 3, 2012.

[2] = test system: winter wheat variety Dekan; assay: Foliar application field trial Laacherhof: greening effect in winter wheat; assay type: in vivo; conditions: 50 g a.i./ha, sprayed threefold at BBCH 31, 39 and 69; percentage of the color green; untreated control 21.7
Method: as §3, §4, §5
The greening effect of the single treatments was evaluated on Jul. 6, 2012.

[3] = test system: winter wheat variety Dekan; assay: Foliar application field trial Höfchen: green leaves and yield in winter wheat; assay type: in vivo; conditions: for Greening Effect (%): 100 EC, assessed at EC 85, 38 days after second application, untreated control 0; for Grain Yield (dt/ha): untreated control 85
Method: The field trial was conducted in the experimental station “Höfchen” in Germany in spring 2012. Winter wheat, variety “Dekan”, was planted on October 2011. Fertilization, herbicide- and plant growth regulator applications were carried out according to the local agricultural practice.
The trial was conducted with 4 replicates. Plot size was 12 m^2 and there were four replicates.
Compound A5 was applied as a 100 EC formulation with rates of 37 and 75 g a.i./ha twice in the growing season at BBCH-growth stages EC 33 and 55.
The effect on the green foliage was assessed on July 2012, 38 days after the second application, at growth stage EC 85, (see table 6).
(§6) The trial was harvested on August 2012.

[4] = test system: winter wheat variety Akteur; assay: Foliar application field trial Langfoerden (FA12DSD559XJE1): yield in winter wheat; assay type: in vivo; conditions: for Grain Yield (dt/ha): 100 EC, disease free, untreated control 62
Method: The field trial FA12DSD559XJE1 was conducted in the experimental station “Langfoerden” in Germany in spring 2012.
Winter wheat, variety “Akteur”, was planted on November 2011. Fertilization, herbicide- and plant growth regulator applications were carried out according to the local agricultural practice.
The trial was conducted with 4 replicates. Plot size was 16 m^2 and there were four replicates.
Compound A5 was applied as a 100 EC formulation with rates of 37 and 75 g a.i./ha twice in the growing season at BBCH-growth stages EC 33 and 61.
In this trial there was no significant disease severity assessed. It can be considered as disease free.
as §6

corn = assay: Foliar application field trial USA (FA12NARS4CUJX1): green foliage and yield in corn; assay type: in vivo; conditions: for Greening Effect (%): 100 EC, green foliage of corn at EC 79, untreated control 43; for Grain Yield (dt/ha): untreated control 39.5
Method: The field trial FA12NARS4CUJX1 was conducted in the USA (IA, 50046 Cambridge) in spring 2012.
The crop was planted on April 2012. Fertilization and herbicide applications were carried out according to the local agricultural practice.
The trial was conducted with 4 replicates. Plot size was 80 m^2 and there were four replicates.
Compound A5 was applied as a 100 EC formulation with rates of 20 and 50 g a.i./ha twice in the growing season at BBCH-growth stages EC 15 and 61.
In this trial there was no significant leaf disease severity assessed (Kabatiella zeae pest severity below 5%). It can be considered as almost disease free.
The trial was harvested on September 2012.

[5] = formula (I) compounds in EC100 formulation, other SDHI in field formulations
[6] = 37 g a.i./ha twice (EC 33 and 55)
[7] = 75 g a.i./ha twice (EC 33 and 55)
[8] = 37 g a.i./ha twice (EC 33 and 61)
[9] = 75 g a.i./ha twice (EC 33 and 61)
[10] = 20 g a.i./ha twice (EC 15 and 61)
[11] = 50 g a.i./ha twice (EC 15 and 61)

CC(C)c1ccccc1CN(C(=O)c1c(C(F)F)nn(C)c1F)C1CC1 [Compound A1, N-cyclopropyl-3-(difluoromethyl)-5-fluoro-N-(2-isopropylbenzyl)-1-methyl-1H-pyrazole-4-carboxamide]
Chlorophyll content (%) (wheat leave discs; [5]): 87%

CC(C)c1ccc(Cl)cc1CN(C(=O)c1c(C(F)F)nn(C)c1F)C1CC1 [Compound A5, N-(5-chloro-2-isopropylbenzyl)-N-cyclopropyl-3-(difluoromethyl)-5-fluoro-1-methyl-1H-pyrazole-4-carboxamide]
Chlorophyll content (%) (wheat leave discs; [5]): 78% | Chlorophyll content (%) (barley leave discs; [5]): 55% | Plant Height (cm)/% (soybean cultivar BRS 245; seed treatment 25 g a.i./dt): 105% | Weight Root (g)/% (soybean cultivar BRS 245; seed treatment 25 g a.i./dt): 117% | Weight Dry Plant (g)/% (soybean cultivar BRS 245; seed treatment 25 g a.i./dt): 107% | Grain Yield (dt)/% (soybean cultivar BRS 245; seed treatment 25 g a.i./dt): 112% | Weight of 1000 Grains (g)/% (soybean cultivar BRS 245; seed treatment 25 g a.i./dt): 103% | Plant Height (cm)/% (soybean cultivar BRS 245; seed treatment 100 g a.i./dt): 105% | Weight Root (g)/% (soybean cultivar BRS 245; seed treatment 100 g a.i./dt): 103% | Weight Dry Plant (g)/% (soybean cultivar BRS 245; seed treatment 100 g a.i./dt): 108% | Grain Yield (dt)/% (soybean cultivar BRS 245; seed treatment 100 g a.i./dt): 111% | Weight of 1000 Grains (g)/% (soybean cultivar BRS 245; seed treatment 100 g a.i./dt): 105% | impact on development and yield of soybean (in words) (soybean cultivar BRS 245; seed treatment, almost disease free conditions): clearly stimulates the physiological development of soybean plants and boosts both grain yield and the grain weight | Grain Yield (% of Untreated Control) [1]: 120% | Grain Yield (dt/ha) [1]: 103.1 dt/ha | Greening Effect (%) [2]: 26.7% | Grain Yield (% of Untreated Control) [3, 6]: 128% | Greening Effect (%) [3, 6]: 54% | Grain Yield (dt/ha) [3, 6]: 109 dt/ha | Grain Yield (% of Untreated Control) [3, 7]: 136% | Greening Effect (%) [3, 7]: 86% | Grain Yield (dt/ha) [3, 7]: 115 dt/ha | effect on maintenance of green leaves in winter wheat (in words) ([3]; foliar sprays): clearly has an effect on the maintenance of the green leaves shortly before harvest | Grain Yield (% of Untreated Control) [4, 8]: 117% | Grain Yield (dt/ha) [4, 8]: 72 dt/ha | Grain Yield (% of Untreated Control) [4, 9]: 124% | Grain Yield (dt/ha) [4, 9]: 76 dt/ha | effect on grain yield in winter wheat (in words) ([4]; foliar sprays, practically disease-free): clearly has an effect on grain yield | Grain Yield (% of Untreated Control) (corn; [10]): 123% | Greening Effect (%) (corn; [10]): 59% | Grain Yield (dt/ha) (corn; [10]): 48.5 dt/ha | Grain Yield (% of Untreated Control) (corn; [11]): 131% | Greening Effect (%) (corn; [11]): 63% | Grain Yield (dt/ha) (corn; [11]): 51.8 dt/ha | effect on maintenance of green leaves in corn (in words) (corn; foliar sprays): clearly has an effect on the maintenance of the green leaves shortly before harvest

CC(C)c1ccc(F)cc1CN(C(=O)c1c(C(F)F)nn(C)c1F)C1CC1 [Compound A7, N-cyclopropyl-3-(difluoromethyl)-5-fluoro-N-(5-fluoro-2-isopropylbenzyl)-1-methyl-1H-pyrazole-4-carboxamide]
Chlorophyll content (%) (wheat leave discs; tested in EC50 formulation): 83% | Chlorophyll content (%) (barley leave discs; tested in EC50 formulation): 77% | Grain Yield (% of Untreated Control) [1]: 115% | Grain Yield (dt/ha) [1]: 99.4 dt/ha | Greening Effect (%) [2]: 36.7%

CC(C)c1cccc(F)c1CN(C(=O)c1c(C(F)F)nn(C)c1F)C1CC1 [Compound A10, N-cyclopropyl-3-(difluoromethyl)-5-fluoro-N-(2-fluoro-6-isopropylbenzyl)-1-methyl-1H-pyrazole-4-carboxamide]
Chlorophyll content (%) (barley leave discs; [5]): 60% | Grain Yield (% of Untreated Control) [1]: 116% | Grain Yield (dt/ha) [1]: 99.9 dt/ha | Greening Effect (%) [2]: 50.0%

Cc1ccc(C(C)C)c(CN(C(=O)c2c(C(F)F)nn(C)c2F)C2CC2)c1 [Compound A12, N-cyclopropyl-3-(difluoromethyl)-5-fluoro-N-(2-isopropyl-5-methylbenzyl)-1-methyl-1H-pyrazole-4-carboxamide]
Chlorophyll content (%) (wheat leave discs; [5]): 88% | Chlorophyll content (%) (barley leave discs; [5]): 72% | Grain Yield (% of Untreated Control) [1]: 110% | Grain Yield (dt/ha) [1]: 94.9 dt/ha | Greening Effect (%) [2]: 53.3%

Cc1ccc(C(C)(C)C)c(CN(C(=O)c2c(C(F)F)nn(C)c2F)C2CC2)c1 [Compound A14, N-(2-tert-butyl-5-methylbenzyl)-N-cyclopropyl-3-(difluoromethyl)-5-fluoro-1-methyl-1H-pyrazole-4-carboxamide]
Chlorophyll content (%) (barley leave discs; [5]): 77%

Cn1cc(C(=O)Nc2ccccc2-c2cc(F)c(F)c(F)c2)c(C(F)F)n1 [Fluxapyroxad, reference compound]
colour of leave discs at the end of the experiment (wheat leave discs): discolored | Chlorophyll content (%) (wheat leave discs; [5]): 51% | Chlorophyll content (%) (barley leave discs; [5]): 28%

CC(C)C1C2CCC1c1c(NC(=O)c3cn(C)nc3C(F)F)cccc12 (stereo not drawn) [Isopyrazam, reference compound]
colour of leave discs at the end of the experiment (wheat leave discs): discolored | Chlorophyll content (%) (wheat leave discs; [5]): 49% | Chlorophyll content (%) (barley leave discs; [5]): 32%
